Experimental data from ChEMBL document CHEMBL5241054, “Effective anti-aromatase therapy to battle against estrogen-mediated breast cancer: Comparative SAR/QSAR assessment on steroidal aromatase inhibitors” (Eur J Med Chem, 2020).

The molecules below were run against T1, Aromatase (Homo sapiens, UniProt P11511).
T1 sequence (P11511 whole entry): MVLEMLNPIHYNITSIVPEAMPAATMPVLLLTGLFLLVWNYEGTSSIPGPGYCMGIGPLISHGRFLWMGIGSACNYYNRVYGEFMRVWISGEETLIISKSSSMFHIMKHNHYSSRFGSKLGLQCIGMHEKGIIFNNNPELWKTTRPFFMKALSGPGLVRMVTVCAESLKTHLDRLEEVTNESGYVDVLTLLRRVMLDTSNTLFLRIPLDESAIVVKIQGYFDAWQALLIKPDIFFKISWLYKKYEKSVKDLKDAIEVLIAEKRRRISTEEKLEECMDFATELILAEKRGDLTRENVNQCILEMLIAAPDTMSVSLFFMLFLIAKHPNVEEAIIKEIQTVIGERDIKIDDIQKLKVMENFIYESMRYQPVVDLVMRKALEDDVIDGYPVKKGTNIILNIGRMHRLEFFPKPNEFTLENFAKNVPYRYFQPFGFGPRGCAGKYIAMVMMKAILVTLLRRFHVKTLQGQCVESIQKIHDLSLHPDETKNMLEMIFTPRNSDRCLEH

| Compound | IC50 [nM] |
| --- | --- |
| C[C@]12CCC(=O)C=C1C[C@H](CCc1ccccc1)[C@@H]1[C@@H]2CC[C@]2(C)C(=O)CC[C@@H]12 | 40.2 |
| C[C@]12CCC(=O)C=C1C[C@H](Cc1ccccc1)[C@@H]1[C@@H]2CC[C@]2(C)C(=O)CC[C@@H]12 | 44.5 |
| C[C@]12CC[C@H]3[C@@H]([C@H](Cc4ccccc4)CC4=CC(=O)CC[C@@]43C)[C@@H]1CC[C@@H]2O | 39.5 |
| C[C@]12CC[C@H]3[C@@H]([C@H](CCc4ccccc4)CC4=CC(=O)CC[C@@]43C)[C@@H]1CC[C@@H]2O | 36 |
| C[C@H]1C[C@@H]2[C@H](CC[C@]3(C)C(=O)CC[C@@H]23)[C@@]2(C)CCCC=C12 | 37 |
| CO[C@@H]1C[C@@H]2[C@H](CC[C@]3(C)C(=O)CC[C@@H]23)[C@@]2(C)CCCC=C12 | 50 |
| CC[C@]12C=CC(=O)C=C1C=C[C@H]1[C@@H]3CCC(=O)[C@@]3(C)CC[C@@H]12 | 360 |
| CC[C@]12C=CC(=O)C=C1CC[C@H]1[C@@H]3CCC(=O)[C@@]3(C)CC[C@@H]12 | 160 |
| CC[C@H]1C[C@@H]2[C@H](CC[C@]3(C)C(=O)CC[C@@H]23)[C@@]2(C)CCCC=C12 | 110 |
| C[C@]12CC[C@H]3[C@@H](C(=O)C=C4CCCC[C@@]43CO)[C@@H]1CCC2=O | 3300 |
| CO[C@H]1C[C@@H]2[C@H](CC[C@]3(C)C(=O)CC[C@@H]23)[C@@]2(C)CCCC=C12 | 160 |
| CC[C@]12CCC(=O)C=C1C=C[C@@H]1[C@@H]2CC[C@]2(C)C(=O)CC[C@@H]12 | 300 |
| C[C@]12CCC(=O)C=C1[C@@H]1[C@H]([C@@H]3[C@@H]2CC[C@]2(C)C(=O)CC[C@@H]32)C1(F)F | 1150 |
| CC1(C)C[C@@]2(C)C(=CC1=O)[C@@H](Br)C[C@@H]1[C@@H]2CC[C@]2(C)C(=O)CC[C@@H]12 | 100 |
| CC1(C)C[C@@]2(C)C(=CC1=O)[C@H](Br)C[C@@H]1[C@@H]2CC[C@]2(C)C(=O)CC[C@@H]12 | 110 |
| C[C@@H]1C[C@@H]2[C@H](CC[C@]3(C)C(=O)CC[C@@H]23)[C@@]2(C)CCCC=C12 | 49 |
| CC(=O)O[C@@H]1C[C@@H]2[C@H](CC[C@]3(C)C(=O)CC[C@@H]23)[C@@]2(C)CCCC=C12 | 120 |
| CC(=O)O[C@H]1C[C@@H]2[C@H](CC[C@]3(C)C(=O)CC[C@@H]23)[C@@]2(C)CCCC=C12 | 190 |
| C[C@]12CC[C@H]3[C@@H](CCC4=CC(=O)CC[C@@]43CO)[C@@H]1CCC2=O | 13000 |
| C[C@]12CCC=CC1=CC(=O)[C@@H]1[C@@H]2CC[C@]2(C)C(=O)CC[C@@H]12 | 1800 |
| C[C@]12CCC(=O)c3[nH]nc(c31)C[C@@H]1[C@@H]2CC[C@]2(C)C(=O)CC[C@@H]12 | 236 |
| C[C@]12CCC(=O)c3c1c(nn3C/C=C/c1ccccc1)C[C@@H]1[C@@H]2CC[C@]2(C)C(=O)CC[C@@H]12 | 899 |
| C[C@]12CC[C@H]3[C@@H](C=CC4=CC(=O)C=C[C@@]43CBr)[C@@H]1CCC2=O | 2100 |

| Compound | IC50 [nM] |
| --- | --- |
| C[C@]12CCCCC1=CC(=O)[C@@H]1[C@@H]2CC[C@]2(C)C(O)CC[C@@H]12 (some centres undefined) | 1600 |
| C[C@]12CC[C@H]3[C@@H](C=CC4=CC(=O)CC[C@@]43CCl)[C@@H]1CCC2=O | 760 |
| C[C@]12CC[C@H]3[C@@H](C=CC4=CC(=O)C=C[C@@]43CCl)[C@@H]1CCC2=O | 1330 |
| CCC[C@H]1C[C@@H]2[C@H](CC[C@]3(C)C(=O)CC[C@@H]23)[C@@]2(C)CCCC=C12 | 230 |
| C[C@]12CC[C@H]3[C@@H](CCC4=CC(=O)C=C[C@@]43CCl)[C@@H]1CCC2=O | 951 |
| C[C@]12CC[C@H]3[C@@H](C(=O)C=C4C=CCC[C@@]43CO)[C@@H]1CCC2=O | 60000 |
| C[C@]12CC[C@H]3[C@@H](CCC4=CC(=O)C=C[C@@]43CI)[C@@H]1CCC2=O | 5500 |
| CC[C@]12CCC(=O)C=C1C(=O)C[C@@H]1[C@@H]2CC[C@]2(C)C(=O)CC[C@@H]12 | 2200 |
| C[C@]12CC[C@H]3[C@@H](C[C@H]4O[C@]45C(=O)CCC[C@]35C=O)C1CCC2=O (some centres undefined) | 210000 |
| C[C@]12CCC3[C@@H](CC(=O)[C@]45O[C@H]4CCC[C@]35C=O)C1CCC2=O (some centres undefined) | 150000 |
| C[C@]12CC[C@H]3[C@@H](CC=C4CCCC[C@@]43CO)[C@@H]1CCC2O (some centres undefined) | 61900 |
| C[C@]12CCC(=O)c3nn(Cc4ccccc4)c(c31)C[C@@H]1[C@@H]2CC[C@]2(C)C(=O)CC[C@@H]12 | 245 |
| C[C@]12CC[C@H]3[C@@H](C=CC4=CC(=O)C=C[C@@]43CI)[C@@H]1CCC2=O | 4700 |
| C[C@H]1C[C@@H]2[C@H](CC[C@]3(C)C(O)CC[C@@H]23)[C@@]2(C)CCCC=C12 (some centres undefined) | 260 |
| C[C@]12CC[C@H]3[C@@H](C(=O)C=C4C=CCC[C@@]43C=O)[C@@H]1CCC2=O | 11000 |
| CC1=C[C@@]2(C)C(=CC1=O)C(Br)C[C@@H]1[C@@H]2CC[C@]2(C)C(=O)CC[C@@H]12 (some centres undefined) | 710 |
| C[C@]12CCC(=O)c3c1c(nn3Cc1ccc([N+](=O)[O-])cc1)C[C@@H]1[C@@H]2CC[C@]2(C)C(=O)CC[C@@H]12 | 658 |
| C[C@]12CC[C@H]3[C@@H](CCC4=CC(=O)CC[C@@]43C)[C@@H]1CC[C@@H]2OC(=O)CBr | 50000 |
| C[C@]12CCCC(=O)C1CC[C@@H]1[C@@H]2CC[C@]2(C)C(=O)CC[C@@H]12 (some centres undefined) | 2400 |
| C[C@]12CCC(=O)c3nn(C/C=C/c4ccccc4)c(c31)C[C@@H]1[C@@H]2CC[C@]2(C)C(=O)CC[C@@H]12 | 951 |
| C[C@]12CC[C@H]3[C@@H](C=CC4=CC(=O)CC[C@@]43CBr)[C@@H]1CCC2=O | 1400 |
| C[C@]12CCCCC1=CC[C@@H]1[C@@H]2CC[C@]2(C)C(O)CC[C@@H]12 (some centres undefined) | 30000 |
| CC[C@@H]1C[C@@H]2[C@H](CC[C@]3(C)C(=O)CC[C@@H]23)[C@@]2(C)CCCC=C12 | 320 |

| Compound | IC50 [nM] |
| --- | --- |
| C[C@]12CC[C@H]3[C@@H]([C@@H]4C[C@@H]4C4=CCCC[C@@]43C)[C@@H]1CC[C@@H]2O | 2700 |
| C[C@]12CC[C@H]3[C@@H](CCC4=CC(=O)CC[C@@]43CBr)[C@@H]1CCC2=O | 1400 |
| CCCCC[C@@H]1C[C@@H]2[C@H](CC[C@]3(C)C(=O)CC[C@@H]23)[C@@]2(C)CCCC=C12 | 12000 |
| C[C@]12CC[C@H]3[C@@H](C[C@H]4O[C@]45C(=O)CCC[C@]35C)C1CCC2=O (some centres undefined) | 12500 |
| C[C@]12CC[C@H]3[C@@H](CCC4=CC(=O)CC[C@@]43CI)[C@@H]1CCC2=O | 4100 |
| C[C@]12CCC(=O)c3c1c(nn3Cc1ccccc1)C[C@@H]1[C@@H]2CC[C@]2(C)C(=O)CC[C@@H]12 | 342 |
| C[C@@H]1C[C@@H]2[C@H](CC[C@]3(C)C(O)CC[C@@H]23)[C@@]2(C)CCCC=C12 (some centres undefined) | 3700 |
| C[C@]12CCC(=O)c3nn(Cc4cccc([N+](=O)[O-])c4)c(c31)C[C@@H]1[C@@H]2CC[C@]2(C)C(=O)CC[C@@H]12 | 490 |
| C[C@]12CC[C@H]3[C@@H](CCC4=CC(=O)C=C[C@@]43CBr)[C@@H]1CCC2=O | 1000 |
| CC(=O)O[C@@H]1CCC[C@@]2(CO)C1=CC[C@@H]1[C@@H]2CC[C@]2(C)C(=O)CC[C@@H]12 | 11000 |
| C[C@]12CC[C@H]3[C@@H](C=CC4=CC(=O)CC[C@@]43CI)[C@@H]1CCC2=O | 6100 |
| CC[C@@H]1C[C@@H]2[C@H](CC[C@]3(C)C(O)CC[C@@H]23)[C@@]2(C)CCCC=C12 (some centres undefined) | 1300 |
| C[C@]12CCC(=O)C=C1[C@H](OC(=O)CBr)C[C@@H]1[C@@H]2CC[C@]2(C)C(=O)CC[C@@H]12 | 45000 |
| C[C@]12CC[C@@H]3C4CCCCC4=CC(=O)[C@H]3[C@@H]1CCC2=O (some centres undefined) | 28000 |
| C[C@]12CC[C@H]3[C@@H](C(=O)C=C4CCCC[C@@]43C=O)[C@@H]1CCC2=O | 60000 |
| C[C@]12CC[C@H]3[C@@H](C(=O)C=C4CCCC[C@@]43CO)[C@@H]1CCC2O (some centres undefined) | 43000 |
| C[C@]12CCCC=C1[C@H]1C[C@H]1[C@@H]1[C@@H]2CC[C@]2(C)C(=O)CC[C@@H]12 | 150 |
| C[C@]12CCC=CC1=CC(=O)[C@@H]1[C@@H]2CC[C@]2(C)C(O)CC[C@@H]12 (some centres undefined) | 42000 |
| CCC[C@@H]1C[C@@H]2[C@H](CC[C@]3(C)C(=O)CC[C@@H]23)[C@@]2(C)CCCC=C12 | 440 |
| CC[C@H]1C[C@@H]2[C@H](CC[C@]3(C)C(O)CC[C@@H]23)[C@@]2(C)CCCC=C12 (some centres undefined) | 130 |
| CCCCCC[C@H]1C[C@@H]2[C@H](CC[C@]3(C)C(=O)CC[C@@H]23)[C@@]2(C)CCCC=C12 | 8990 |
| C[C@]12CC[C@@H]3C4CCC=CC4=CC(=O)[C@H]3[C@@H]1CCC2=O (some centres undefined) | 33000 |
| C[C@]12CC[C@H]3[C@@H](CC(=O)C4=CC(=O)CC[C@@]43C)[C@@H]1CC[C@@H]2OC(=O)CBr | 42000 |
